Our source for the melting point and Ki values is article PMC9661477, “New Dual P-Glycoprotein (P-gp) and Human Carbonic Anhydrase XII (hCA XII) Inhibitors as Multidrug Resistance (MDR) Reversers in Cancer Cells” (Journal of Medicinal Chemistry, 2022).

One data set concerns the target hCA II (Homo sapiens, UniProt P00918). Briefly: stopped-flow CO2 hydrase assay, hCA II. The settings on record: read-out: Ki hCA II; stopped-flow technique, mean from three different assays.
For the next data set, the target named is hCA IX (Homo sapiens, UniProt Q16790). The data set is described as follows: stopped-flow CO2 hydrase assay, hCA IX. The settings on record: read-out: Ki hCA IX; stopped-flow technique, mean from three different assays.
In a further data set the target is hCA I (Homo sapiens, UniProt P00915). The data set is described as follows: stopped-flow CO2 hydrase assay, hCA I. To be noted: read-out: Ki hCA I; stopped-flow technique, mean from three different assays.

Counter-ions that a name gives are not always drawn. A value given as a limit tells only on which side of the number the result lay.

Sequence of hCA I (P00915 whole entry): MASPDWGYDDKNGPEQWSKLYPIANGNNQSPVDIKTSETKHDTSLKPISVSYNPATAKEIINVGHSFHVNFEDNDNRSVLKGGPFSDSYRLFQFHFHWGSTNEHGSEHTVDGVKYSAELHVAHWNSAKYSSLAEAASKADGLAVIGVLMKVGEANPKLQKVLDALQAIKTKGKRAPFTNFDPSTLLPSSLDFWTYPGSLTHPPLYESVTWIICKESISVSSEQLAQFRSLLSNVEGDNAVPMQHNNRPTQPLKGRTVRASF
Text for hCA II: (§1) An SX.18MV-R Applied Photophysics (Oxford, U.K.) stopped-flow instrument has been used to assay the catalytic/inhibition of various CA isozymes.[38] […] The inhibition constants were obtained by nonlinear least-squares methods using the Cheng–Prusoff equation, as reported earlier,[32] and represent the mean from at least three different determinations.
Text for hCA IX: as §1

`COc1cc(/C=C/C(=O)OCCCCCN(CCCOC(=O)/C=C/c2cc(OC)c(OC)c(OC)c2)CCCOc2ccc3ccc(=O)oc3c2)cc(OC)c1OC` (as salt: hydrochloride) [Compound 1, (E)-5-((3-((2-Oxo-2H-chromen-7-yl)oxy)propyl)(3-(((E)-3-(3,4,5-trimethoxyphenyl)acryloyl)oxy)propyl)amino)pentyl 3-(3,4,5-Trimethoxyphenyl)acrylate]: the melting point (usually the temperature of the solid-liquid transition) fell in the range of 81 to 84 °C. The same measure, in the same setting: the figure for `COc1cc(/C=C/C(=O)OCCCCCN(CCCOC(=O)c2cc(OC)c(OC)c(OC)c2)CCCOc2ccc3ccc(=O)oc3c2)cc(OC)c1OC` (as salt: hydrochloride) [Compound 2, (E)-3-((3-((2-Oxo-2H-chromen-7-yl)oxy)propyl)(5-((3-(3,4,5-trimethoxyphenyl)acryloyl)oxy)pentyl)amino)propyl 3,4,5-Trimethoxybenzoate] is 128 to 131 °C. `COc1cc(/C=C/C(=O)OCCCCCN(CCCOC(=O)c2c3ccccc3cc3ccccc23)CCCOc2ccc3ccc(=O)oc3c2)cc(OC)c1OC` (as salt: hydrochloride) [Compound 3, (E)-3-((3-((2-Oxo-2H-chromen-7-yl)oxy)propyl)(5-((3-(3,4,5-trimethoxyphenyl)acryloyl)oxy)pentyl)amino)propyl Anthracene-9-carboxylate] yielded a melting point of 94 to 97 °C.

Regarding `COc1cc(/C=C/C(=O)OCCCN(CCCCCOC(=O)c2cc(OC)c(OC)c(OC)c2)CCCOc2ccc3ccc(=O)oc3c2)cc(OC)c1OC` (as salt: hydrochloride) [Compound 4, (E)-5-((3-((2-Oxo-2H-chromen-7-yl)oxy)propyl)(3-((3-(3,4,5-trimethoxyphenyl)acryloyl)oxy)propyl)amino)pentyl 3,4,5-Trimethoxybenzoate], the melting point is 74 to 77 °C. On the same count and under the same terms, for `COc1cc(C(=O)OCCCCCN(CCCOC(=O)c2cc(OC)c(OC)c(OC)c2)CCCOc2ccc3ccc(=O)oc3c2)cc(OC)c1OC` (as salt: hydrochloride) [Compound 5, 5-((3-((2-Oxo-2H-chromen-7-yl)oxy)propyl)(3-((3,4,5-trimethoxybenzoyl)oxy)propyl)amino)pentyl 3,4,5-Trimethoxybenzoate] the value was 84 to 87 °C; for `COc1cc(C(=O)OCCCCCN(CCCOC(=O)c2c3ccccc3cc3ccccc23)CCCOc2ccc3ccc(=O)oc3c2)cc(OC)c1OC` (as salt: hydrochloride) [Compound 6, 3-((3-((2-Oxo-2H-chromen-7-yl)oxy)propyl)(5-((3,4,5-trimethoxybenzoyl)oxy)pentyl)amino)propyl Anthracene-9-carboxylate], 114 to 117 °C. `COc1cc(/C=C/C(=O)OCCCN(CCCCCOC(=O)c2c3ccccc3cc3ccccc23)CCCOc2ccc3ccc(=O)oc3c2)cc(OC)c1OC` (as salt: hydrochloride) [Compound 7, (E)-5-((3-((2-Oxo-2H-chromen-7-yl)oxy)propyl)(3-((3-(3,4,5-trimethoxyphenyl)acryloyl)oxy)propyl)amino)pentyl Anthracene-9-carboxylate] showed a melting point of 92 to 95 °C. The molecule `COc1cc(C(=O)OCCCN(CCCCCOC(=O)c2c3ccccc3cc3ccccc23)CCCOc2ccc3ccc(=O)oc3c2)cc(OC)c1OC` (as salt: hydrochloride) [Compound 8, 5-((3-((2-Oxo-2H-chromen-7-yl)oxy)propyl)(3-((3,4,5-trimethoxybenzoyl)oxy)propyl)amino)pentyl Anthracene-9-carboxylate] had a melting point of 120 to 123 °C. Molecule `O=C(OCCCCCN(CCCOC(=O)c1c2ccccc2cc2ccccc12)CCCOc1ccc2ccc(=O)oc2c1)c1c2ccccc2cc2ccccc12` (as salt: hydrochloride) [Compound 9, 3-((5-((Anthracene-9-carbonyl)oxy)pentyl)(3-((2-oxo-2H-chromen-7-yl)oxy)propyl)amino)propyl Anthracene-9-carboxylate] returned a melting point of 118 to 121 °C. `COc1cc(/C=C/C(=O)OCCCCCCN(CCCOC(=O)c2cc(OC)c(OC)c(OC)c2)CCCOc2ccc3ccc(=O)oc3c2)cc(OC)c1OC` (as salt: hydrochloride) [Compound 11, (E)-3-((3-((2-Oxo-2H-chromen-7-yl)oxy)propyl)(6-((3-(3,4,5-trimethoxyphenyl)acryloyl)oxy)hexyl)amino)propyl 3,4,5-Trimethoxybenzoate] showed a melting point of 71 to 74 °C. In turn, `COc1cc(/C=C/C(=O)OCCCCCCN(CCCOC(=O)c2c3ccccc3cc3ccccc23)CCCOc2ccc3ccc(=O)oc3c2)cc(OC)c1OC` (as salt: hydrochloride) [Compound 12, (E)-3-((3-((2-Oxo-2H-chromen-7-yl)oxy)propyl)(6-((3-(3,4,5-trimethoxyphenyl)acryloyl)oxy)hexyl)amino)propyl Anthracene-9-carboxylate] gave a melting point of 99 to 102 °C. As for `COc1cc(/C=C/C(=O)OCCCN(CCCCCCOC(=O)c2cc(OC)c(OC)c(OC)c2)CCCOc2ccc3ccc(=O)oc3c2)cc(OC)c1OC` (as salt: hydrochloride) [Compound 13, (E)-6-((3-((2-Oxo-2H-chromen-7-yl)oxy)propyl)(3-((3-(3,4,5-trimethoxyphenyl)acryloyl)oxy)propyl)amino)hexyl 3,4,5-Trimethoxybenzoate], the melting point was in the range of 78 to 81 °C.

For `COc1cc(C(=O)OCCCCCCN(CCCOC(=O)c2cc(OC)c(OC)c(OC)c2)CCCOc2ccc3ccc(=O)oc3c2)cc(OC)c1OC` (as salt: hydrochloride) [Compound 14, 6-((3-((2-Oxo-2H-chromen-7-yl)oxy)propyl)(3-((3,4,5-trimethoxybenzoyl)oxy)propyl)amino)hexyl 3,4,5-Trimethoxybenzoate], the melting point was in the range of 83 to 85 °C. The molecule `COc1cc(C(=O)OCCCCCCN(CCCOC(=O)c2c3ccccc3cc3ccccc23)CCCOc2ccc3ccc(=O)oc3c2)cc(OC)c1OC` (as salt: hydrochloride) [Compound 15, 3-((3-((2-Oxo-2H-chromen-7-yl)oxy)propyl)(6-((3,4,5-trimethoxybenzoyl)oxy)hexyl)amino)propyl Anthracene-9-carboxylate] came in with a melting point of 148 to 151 °C. In turn, `COc1cc(/C=C/C(=O)OCCCN(CCCCCCOC(=O)c2c3ccccc3cc3ccccc23)CCCOc2ccc3ccc(=O)oc3c2)cc(OC)c1OC` (as salt: hydrochloride) [Compound 16, (E)-6-((3-((2-Oxo-2H-chromen-7-yl)oxy)propyl)(3-((3-(3,4,5-trimethoxyphenyl)acryloyl)oxy)propyl)amino)hexyl Anthracene-9-carboxylate] displayed a melting point of 92 to 95 °C. With `COc1cc(C(=O)OCCCN(CCCCCCOC(=O)c2c3ccccc3cc3ccccc23)CCCOc2ccc3ccc(=O)oc3c2)cc(OC)c1OC` (as salt: hydrochloride) [Compound 17, 6-((3-((2-Oxo-2H-chromen-7-yl)oxy)propyl)(3-((3,4,5-trimethoxybenzoyl)oxy)propyl)amino)hexyl Anthracene-9-carboxylate], the melting point is 87 to 90 °C. Regarding `O=C(OCCCCCCN(CCCOC(=O)c1c2ccccc2cc2ccccc12)CCCOc1ccc2ccc(=O)oc2c1)c1c2ccccc2cc2ccccc12` (as salt: hydrochloride) [Compound 18, 3-((6-((Anthracene-9-carbonyl)oxy)hexyl)(3-((2-oxo-2H-chromen-7-yl)oxy)propyl)amino)propyl Anthracene-9-carboxylate], the melting point lay in the range of 136 to 139 °C.

`COc1cc(/C=C/C(=O)OCCCCCCCN(CCCOC(=O)/C=C/c2cc(OC)c(OC)c(OC)c2)CCCOc2ccc3ccc(=O)oc3c2)cc(OC)c1OC` (as salt: hydrochloride) [Compound 19, (E)-7-((3-((2-Oxo-2H-chromen-7-yl)oxy)propyl)(3-(((E)-3-(3,4,5-trimethoxyphenyl)acryloyl)oxy)propyl)amino)heptyl 3-(3,4,5-Trimethoxyphenyl)acrylate]: the melting point lay within 90 to 92 °C.

In the case of `COc1cc(C(=O)OCCCCCCCN(CCCOC(=O)c2c3ccccc3cc3ccccc23)CCCOc2ccc3ccc(=O)oc3c2)cc(OC)c1OC` [Compound 24, 3-((3-((2-Oxo-2H-chromen-7-yl)oxy)propyl)(7-((3,4,5-trimethoxybenzoyl)oxy)heptyl)amino)propyl Anthracene-9-carboxylate], the inhibition constant (Ki) (commonly the dissociation constant of the complex between target and ligand, obtained from inhibition or displacement) was more than 10 µM at hCA II, 0.0385 µM on hCA IX and more than 10 µM at hCA I.

Consider `COc1cc(/C=C/C(=O)OCCCN(CCCCCCCOC(=O)c2c3ccccc3cc3ccccc23)CCCOc2ccc3ccc(=O)oc3c2)cc(OC)c1OC` [Compound 25, (E)-7-((3-((2-Oxo-2H-chromen-7-yl)oxy)propyl)(3-((3-(3,4,5-trimethoxyphenyl)acryloyl)oxy)propyl)amino)heptyl Anthracene-9-carboxylate], for which the values for the inhibitory constant (Ki) on hCA II, at hCA IX and on hCA I were more than 10 µM, 0.0711 µM and more than 10 µM, respectively. Consider `COc1cc(C(=O)OCCCN(CCCCCCCOC(=O)c2c3ccccc3cc3ccccc23)CCCOc2ccc3ccc(=O)oc3c2)cc(OC)c1OC` [Compound 26, 7-((3-((2-Oxo-2H-chromen-7-yl)oxy)propyl)(3-((3,4,5-trimethoxybenzoyl)oxy)propyl)amino)heptyl Anthracene-9-carboxylate], for which the Ki at hCA II is more than 10 µM; on hCA IX, 0.0413 µM; at hCA I it was more than 10 µM.

As to `O=C(OCCCCCCCN(CCCOC(=O)c1c2ccccc2cc2ccccc12)CCCOc1ccc2ccc(=O)oc2c1)c1c2ccccc2cc2ccccc12` [Compound 27, 3-((7-((Anthracene-9-carbonyl)oxy)heptyl)(3-((2-oxo-2H-chromen-7-yl)oxy)propyl)amino)propyl Anthracene-9-carboxylate], the Ki is more than 10 µM on hCA II, 0.102 µM on hCA IX and more than 10 µM at hCA I.
